# In patent US9302999B2, “Substituted triazoles as herbicides” (E. I. DU PONT DE NEMOURS AND COMPANY, priority 2012, dated 2016):
# Tests used:
# Assay type in all cases: in vivo
# [1] = system: velvetleaf (Abutilon theophrasti); test: Test E pre-/postemergence: velvetleaf; conditions: Preemergence, scale 0 to 100
# Source text: (§1) Seeds of plant species selected from corn (Zea mays), soybean (Glycine max), velvetleaf (Abutilon theophrasti), lambsquarters (Chenopodium album), poinsettia, wild (wild poinsettia, Euphorbia heterophylla), pigweed, palmer (palmer pigweed, Amaranthus palmeri), waterhemp (common waterhemp, Amaranthus rudis), smartweed (ladysthumb smartweed, Polygonum persicaria), surinam grass (Brachiaria decumbens), crabgrass, large (large crabgrass, Digitaria sanguinalis), crabgrass, Brazil (Brazilian crabgrass, Digitaria horizontalis), panicum, fall (fall panicum, Panicum dichotomiflorum), foxtail, giant (giant foxtail, Setaria faberii), foxtail, green (green foxtail, Setaria viridis), goosegrass (Eleusine indica), johnsongrass (Sorghum halepense), ragweed (common ragweed, Ambrosia elation), barnyardgrass (Echinochloa crus-galli), sandbur (southern sandbur, Cenchrus echinatus), arrowleaf sida (Sida rhombifolia), ryegrass, Italian (Italian ryegrass, Lolium multiflorum), dayflower, (VA) (Virginia dayflower, Commelina virginica), field bindweed (Convolvulus arvensis), cocklebur (common cocklebur, Xanthium strumarium), morningglory (Ipomoea coccinea), nightshade (eastern black nightshade, Solanum ptycanthum), kochia (Kochia scoparia), nutsedge, yellow (yellow nutsedge, Cyperus esculentus) and beggarticks (hairy beggarticks, Bidens pilosa) were planted into a silt loam soil and treated preemergence with test chemicals formulated in a non-phytotoxic solvent mixture which included a surfactant. At the same time, plants selected from these crop and weed species were planted in pots containing a growing medium comprising spaghnum peat moss, vermiculite, wetting agent and starter nutrients and treated with postemergence applications of some of the test chemicals formulated in the same manner. Plants ranged in height from 2 to 18 cm for postemergence treatments (1- to 4-leaf stage).
# (§2) Treated plants and controls were maintained in a greenhouse for 14 to 21 days, after which time all species were compared to controls and visually evaluated. Plant response ratings, summarized in Table E, are based on a scale of 0 to 100 where 0 is no effect and 100 is complete control. A dash (-) response means no test result.
# [2] = system: poinsettia, wild (wild poinsettia, Euphorbia heterophylla); test: Test E pre-/postemergence: poinsettia, wild; conditions: Preemergence, scale 0 to 100
# Source text: as §1, §2
# [3] = system: smartweed (ladysthumb smartweed, Polygonum persicaria); test: Test E pre-/postemergence: smartweed; conditions: Preemergence, scale 0 to 100
# Source text: as §1, §2
# [4] = system: crabgrass, Brazil (Brazilian crabgrass, Digitaria horizontalis); test: Test E pre-/postemergence: crabgrass, Brazil; conditions: Preemergence, scale 0 to 100
# Source text: as §1, §2
# [5] = system: panicum, fall (fall panicum, Panicum dichotomiflorum); test: Test E pre-/postemergence: panicum, fall; conditions: Preemergence, scale 0 to 100
# Source text: as §1, §2
# [6] = system: foxtail, green (green foxtail, Setaria viridis); test: Test E pre-/postemergence: foxtail, green; conditions: Preemergence, scale 0 to 100
# Source text: as §1, §2
# [7] = system: goosegrass (Eleusine indica); test: Test E pre-/postemergence: goosegrass; conditions: Preemergence, scale 0 to 100
# Source text: as §1, §2
# [8] = system: ragweed (common ragweed, Ambrosia elation); test: Test E pre-/postemergence: ragweed; conditions: Preemergence, scale 0 to 100
# Source text: as §1, §2
# [9] = system: arrowleaf sida (Sida rhombifolia); test: Test E pre-/postemergence: arrowleaf sida; conditions: Preemergence, scale 0 to 100
# Source text: as §1, §2
# [10] = system: morningglory (Ipomoea coccinea); test: Test E pre-/postemergence: morningglory; conditions: Preemergence, scale 0 to 100
# Source text: as §1, §2
# [11] = system: waterhemp_RES1 (ALS/Triazine resistant common waterhemp, Amaranthus rudis); test: Test F postemergence: waterhemp_RES1; conditions: scale 0 to 100
# Source text: (§3) Seeds of plant species selected from corn (Zea mays), soybean (Glycine max), velvetleaf (Abutilon theophrasti), lambsquarters (Chenopodium album), poinsettia, wild (wild poinsettia, Euphorbia heterophylla), pigweed, palmer (palmer pigweed, Amaranthus palmeri), waterhemp (common waterhemp, Amaranthus rudis), surinam grass (Brachiaria decumbens), crabgrass, Brazil (Brazilian crabgrass, Digitaria horizontalis), panicum, fall (fall panicum Panicum dichotomiflorum), crabgrass, large (large crabgrass, Digitaria sanguinalis), foxtail, giant (giant foxtail, Setaria faberii), foxtail, green (green foxtail Setaria viridis), goosegrass (Eleusine indica), ragweed (common ragweed, Ambrosia elatior), barnyardgrass (Echinochloa crus-galli), sandbur (southern sandbur, Cenchrus echinatus), arrowleaf sida (Sida rhombifolia), ryegrass, Italian (Italian ryegrass, Lolium multiflorum), dayflower, VA (Virginia (VA) dayflower, Commelina virginica), field bindweed (Convolvulus arvensis), cocklebur (common cocklebur, Xanthium strumarium), morningglory (Ipomoea coccinea), nightshade (eastern black nightshade, Solanum ptycanthum), kochia (Kochia scoparia), nutsedge, yellow (yellow nutsedge, Cyperus esculentus), johnsongrass (Sorghum halepense), smartweed (ladysthumb smartweed, Polygonum persicaria), and beggarticks (hairy beggarticks, Bidens pilosa), were planted into a silt loam soil and treated preemergence with test chemicals formulated in a non-phytotoxic solvent mixture which included a surfactant. At the same time, plants selected from these crop and weed species and also pigweed (Amaranthus retroflexus), waterhemp_RES1 (ALS/Triazine resistant common waterhemp, Amaranthus rudis) and waterhemp_RES2 (ALS/HPPD resistant common waterhemp, Amaranthus rudis) were planted in pots containing a planting medium comprising spaghnum peat moss, vermiculite, wetting agent and starter nutrients treated with postemergence applications of some of the test chemicals formulated in the same manner. Plants ranged in height from 2 to 18 cm for postemergence treatments (1- to 4-leaf stage).
# as §2
# [12] = system: waterhemp_RES2 (ALS/HPPD resistant common waterhemp, Amaranthus rudis); test: Test F postemergence: waterhemp_RES2; conditions: scale 0 to 100
# Source text: as §3, §2
structure (smiles),measurement,setting,value
"FC(F)(F)COc1nn(-c2ccc(C(F)(F)F)cc2)nc1Cc1ccnc(C(F)(F)F)c1 [Compound 14, 4-[[5-(2,2,2-trifluoroethoxy)-2-[4-(trifluoromethyl)phenyl]-2H-1,2,3-triazol-4-yl]methyl]-2-(trifluoromethyl)pyridine]",Plant response rating: Velvetleaf,[1]; 16 g ai/ha,20
same,Plant response rating: Velvetleaf,[1]; 31 g ai/ha,35
same,Plant response rating: Velvetleaf,[1]; 62 g ai/ha,50
same,Plant response rating: Velvetleaf,[1]; 125 g ai/ha,80
same,Plant response rating: Velvetleaf,[1]; 250 g ai/ha,95
same,"Plant response rating: Poinsettia, Wild",[2]; 16 g ai/ha,15
same,"Plant response rating: Poinsettia, Wild",[2]; 31 g ai/ha,25
same,"Plant response rating: Poinsettia, Wild",[2]; 62 g ai/ha,50
same,"Plant response rating: Poinsettia, Wild",[2]; 125 g ai/ha,65
same,"Plant response rating: Poinsettia, Wild",[2]; 250 g ai/ha,75
same,Plant response rating: Smartweed,[3]; 31 g ai/ha,25
same,Plant response rating: Smartweed,[3]; 62 g ai/ha,80
same,Plant response rating: Smartweed,[3]; 250 g ai/ha,80
same,"Plant response rating: Crabgrass, Brazil",[4]; 16 g ai/ha,60
same,"Plant response rating: Crabgrass, Brazil",[4]; 31 g ai/ha,75
same,"Plant response rating: Crabgrass, Brazil",[4]; 62 g ai/ha,100
same,"Plant response rating: Crabgrass, Brazil",[4]; 125 g ai/ha,100
same,"Plant response rating: Crabgrass, Brazil",[4]; 250 g ai/ha,100
same,"Plant response rating: Panicum, Fall",[5]; 16 g ai/ha,65
same,"Plant response rating: Panicum, Fall",[5]; 31 g ai/ha,80
same,"Plant response rating: Panicum, Fall",[5]; 62 g ai/ha,100
same,"Plant response rating: Panicum, Fall",[5]; 125 g ai/ha,100
same,"Plant response rating: Panicum, Fall",[5]; 250 g ai/ha,100
same,"Plant response rating: Foxtail, Green",[6]; 16 g ai/ha,25
same,"Plant response rating: Foxtail, Green",[6]; 31 g ai/ha,35
same,"Plant response rating: Foxtail, Green",[6]; 62 g ai/ha,50
same,"Plant response rating: Foxtail, Green",[6]; 125 g ai/ha,70
same,"Plant response rating: Foxtail, Green",[6]; 250 g ai/ha,100
same,Plant response rating: Goosegrass,[7]; 16 g ai/ha,65
same,Plant response rating: Goosegrass,[7]; 31 g ai/ha,100
same,Plant response rating: Goosegrass,[7]; 62 g ai/ha,100
same,Plant response rating: Goosegrass,[7]; 125 g ai/ha,100
same,Plant response rating: Goosegrass,[7]; 250 g ai/ha,100
same,Plant response rating: Ragweed,[8]; 16 g ai/ha,0
same,Plant response rating: Ragweed,[8]; 31 g ai/ha,20
same,Plant response rating: Ragweed,[8]; 62 g ai/ha,35
same,Plant response rating: Ragweed,[8]; 125 g ai/ha,80
same,Plant response rating: Ragweed,[8]; 250 g ai/ha,90
same,Plant response rating: Arrowleaf Sida,[9]; 16 g ai/ha,10
same,Plant response rating: Arrowleaf Sida,[9]; 31 g ai/ha,30
same,Plant response rating: Arrowleaf Sida,[9]; 62 g ai/ha,30
same,Plant response rating: Arrowleaf Sida,[9]; 125 g ai/ha,65
same,Plant response rating: Arrowleaf Sida,[9]; 250 g ai/ha,80
same,Plant response rating: Morningglory,[10]; 16 g ai/ha,0
same,Plant response rating: Morningglory,[10]; 31 g ai/ha,20
same,Plant response rating: Morningglory,[10]; 62 g ai/ha,35
same,Plant response rating: Morningglory,[10]; 125 g ai/ha,75
same,Plant response rating: Morningglory,[10]; 250 g ai/ha,75
Cc1nn(-c2ccc(C(F)(F)F)cn2)nc1Oc1ccnc(C(F)(F)F)c1 [Compound 23],Plant response rating: Velvetleaf,[1]; 16 g ai/ha,0
same,Plant response rating: Velvetleaf,[1]; 31 g ai/ha,0
same,Plant response rating: Velvetleaf,[1]; 62 g ai/ha,10
same,Plant response rating: Velvetleaf,[1]; 125 g ai/ha,65
same,Plant response rating: Velvetleaf,[1]; 250 g ai/ha,65
same,"Plant response rating: Poinsettia, Wild",[2]; 16 g ai/ha,0
same,"Plant response rating: Poinsettia, Wild",[2]; 31 g ai/ha,0
same,"Plant response rating: Poinsettia, Wild",[2]; 62 g ai/ha,0
same,"Plant response rating: Poinsettia, Wild",[2]; 125 g ai/ha,35
same,"Plant response rating: Poinsettia, Wild",[2]; 250 g ai/ha,35
same,"Plant response rating: Crabgrass, Brazil",[4]; 16 g ai/ha,0
same,"Plant response rating: Crabgrass, Brazil",[4]; 31 g ai/ha,0
same,"Plant response rating: Crabgrass, Brazil",[4]; 62 g ai/ha,65
same,"Plant response rating: Crabgrass, Brazil",[4]; 125 g ai/ha,65
same,"Plant response rating: Crabgrass, Brazil",[4]; 250 g ai/ha,85
same,"Plant response rating: Panicum, Fall",[5]; 16 g ai/ha,0
same,"Plant response rating: Panicum, Fall",[5]; 31 g ai/ha,15
same,"Plant response rating: Panicum, Fall",[5]; 62 g ai/ha,80
same,"Plant response rating: Panicum, Fall",[5]; 125 g ai/ha,100
same,"Plant response rating: Panicum, Fall",[5]; 250 g ai/ha,100
same,"Plant response rating: Foxtail, Green",[6]; 16 g ai/ha,0
same,"Plant response rating: Foxtail, Green",[6]; 31 g ai/ha,0
same,"Plant response rating: Foxtail, Green",[6]; 62 g ai/ha,5
same,"Plant response rating: Foxtail, Green",[6]; 125 g ai/ha,70
same,"Plant response rating: Foxtail, Green",[6]; 250 g ai/ha,95
same,Plant response rating: Goosegrass,[7]; 16 g ai/ha,0
same,Plant response rating: Goosegrass,[7]; 62 g ai/ha,20
same,Plant response rating: Goosegrass,[7]; 125 g ai/ha,35
same,Plant response rating: Goosegrass,[7]; 250 g ai/ha,60
same,Plant response rating: Ragweed,[8]; 16 g ai/ha,0
same,Plant response rating: Ragweed,[8]; 31 g ai/ha,0
same,Plant response rating: Ragweed,[8]; 62 g ai/ha,0
same,Plant response rating: Ragweed,[8]; 125 g ai/ha,0
same,Plant response rating: Ragweed,[8]; 250 g ai/ha,25
same,Plant response rating: Arrowleaf Sida,[9]; 16 g ai/ha,0
same,Plant response rating: Arrowleaf Sida,[9]; 31 g ai/ha,0
same,Plant response rating: Arrowleaf Sida,[9]; 62 g ai/ha,0
same,Plant response rating: Arrowleaf Sida,[9]; 125 g ai/ha,0
same,Plant response rating: Arrowleaf Sida,[9]; 250 g ai/ha,35
Cc1nn(-c2ccnc(Cl)c2)nc1Cc1ccnc(C(F)(F)F)c1 [Compound 141],"Plant response rating, Waterhemp, Res1",[11]; 8 g ai/ha,90
same,"Plant response rating, Waterhemp, Res1",[11]; 16 g ai/ha,95
same,"Plant response rating, Waterhemp, Res1",[11]; 31 g ai/ha,95
same,"Plant response rating, Waterhemp, Res1",[11]; 62 g ai/ha,95
same,"Plant response rating, Waterhemp, Res1",[11]; 125 g ai/ha,95
same,"Plant response rating, Waterhemp, Res2",[12]; 8 g ai/ha,85
same,"Plant response rating, Waterhemp, Res2",[12]; 16 g ai/ha,95
same,"Plant response rating, Waterhemp, Res2",[12]; 31 g ai/ha,95
same,"Plant response rating, Waterhemp, Res2",[12]; 62 g ai/ha,95
same,"Plant response rating, Waterhemp, Res2",[12]; 125 g ai/ha,100
